# Test results taken from the OPERA property sets (Mansouri et al. 2018).
# Details: not given
row,Compound,logP
1,COC(=O)C1(S(=O)(=O)c2ccc(C)cc2)CCCCC1,2.54
2,COC(=O)CS(=O)(=O)c1ccc(Cl)cc1,1.31
3,COC(=O)CS(=O)(=O)c1ccccc1,0.93
4,CC(C)OC(=O)CS(=O)(=O)c1ccc(Cl)cc1,2.04
5,Cc1ccc(S(=O)(=O)C2(C(=O)OC(C)C)CCCC2)cc1,2.88
6,COC(=O)CS(=O)(=O)c1ccc(Br)cc1,1.52

# Same assay, conditions: 25 °C
row,Compound,solubility
1,COC(=O)C1(S(=O)(=O)c2ccccc2)CCCC1,2820 µM
2,CC(C)OC(=O)C1(S(=O)(=O)c2ccc([N+](=O)[O-])cc2)CCCCCC1,8.5 µM
3,CC(C)(C)OC(=O)C1(S(=O)(=O)c2ccc(Cl)cc2)CC1,75.8 µM
4,COC(=O)C1(S(=O)(=O)c2ccc(Br)cc2)CC1,214 µM
5,COC(=O)C1(S(=O)(=O)c2ccc(Br)cc2)CCC1,282 µM
6,COC(=O)C1(S(=O)(=O)c2ccc(Br)cc2)CCCC1,97.6 µM
7,Cc1ccc(S(=O)(=O)C2(C(=O)OC(C)C)CC2)cc1,588 µM
8,CCOC(=O)C1(S(=O)(=O)c2ccc(C)cc2)CCC1,1100 µM
9,CC(C)OC(=O)C1(S(=O)(=O)c2ccc(Cl)cc2)CCCC1,22.4 µM
10,COC(=O)C1(S(=O)(=O)c2ccc(Cl)cc2)CC1,491 µM
11,CC(C)OC(=O)C1(S(=O)(=O)c2ccc([N+](=O)[O-])cc2)CC1,54.9 µM
12,COC(=O)C1(S(=O)(=O)c2ccc([N+](=O)[O-])cc2)CC1,417 µM
13,COC(=O)C1(S(=O)(=O)c2ccccc2)CC1,5490 µM
14,COC(=O)C1(S(=O)(=O)c2ccc(Br)cc2)CCCCC1,33.2 µM
15,COC(=O)C1(S(=O)(=O)c2ccccc2)CCC1,999 µM
16,CC(C)OC(=O)C1(S(=O)(=O)c2ccc(Cl)cc2)CC1,288 µM
17,CCOC(=O)C1(S(=O)(=O)c2ccc(C)cc2)CC1,976 µM
18,COC(=O)C1(S(=O)(=O)c2ccc(Cl)cc2)CCC1,1000 µM
19,COC(=O)C1(S(=O)(=O)c2ccccc2)CCCCC1,1410 µM
20,CC(C)OC(=O)C1(S(=O)(=O)c2ccc([N+](=O)[O-])cc2)CCC1,174 µM
21,COC(=O)C1(S(=O)(=O)c2ccc(C)cc2)CC1,1320 µM
